Results as given in patent US20260250318A1, “COMPOSITIONS AND METHODS FOR CROSSING THE BLOOD BRAIN BARRIER” (VOYAGER THERAPEUTICS, INC., priority 2022, published 2026).

What was measured:
Details in all cases: synthetic library passage 3, intravenous, relative to wild-type AAV9
brain [1] = assay: NGS fold enrichment of synthetic library (passage 3) in C57Bl/6 mice, first cross-species screen; assay type: in vivo
Outline: (§1)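 Fold enrichment versus wild-type AAV9 was derived by NGS of RT-PCR-amplified RNA from nervous tissue, collected e.g. 28 days after IV dosing […]. The library (passage 3) was given to two NHPs aged 2-4 years and to 6-8-week BALB/c and C57Bl/6 mice (n=3 each).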

brain [2] = assay: NGS fold enrichment of synthetic library (passage 3) in BALB/c mice, first cross-species screen; assay type: in vivo
Outline: as §1

[3] = tested on: brain, spinal cord, and DRG of the NHPs; assay: NGS fold enrichment of synthetic library (passage 3) in NHPs, first cross-species screen; assay type: in vivo, cynomolgus macaques (Macaca fascicularis)
Outline: as §1

[4] = RNA from brain of C57Bl/6 mice, NGS
[5] = RNA from brain of BALB/c mice, NGS
[6] = RNA from spinal cord of NHPs, NGS

Sequence | Fold enrichment over AAV9 in the brain of Mice (C57Bl/6) (brain [1]; [4]) | Fold enrichment over AAV9 in the brain of Mice (BALB/c) (brain [2]; [5]) | Fold enrichment over AAV9 in the brain of NHPs ([3]; RNA from brain of NHPs, NGS) | Fold enrichment over AAV9 in the spinal cord of NHPs [3, 6] | Fold enrichment over AAV9 in the brain of Mice (C57Bl/6) (brain [1]; RNA NGS, brain of C57Bl/6 mice) | Fold enrichment over AAV9 in the brain of Mice (BALB/c) (brain [2]; RNA NGS, brain of BALB/c mice) | Fold enrichment over AAV9 in the brain of NHPs ([3]; RNA NGS, brain of NHPs) | Fold enrichment over AAV9 in the spinal cord of NHPs ([3]; RNA NGS, spinal cord of NHPs)
GSGAVHLTAQNQQT | 0.541 fold | 0.466 fold | 1.306 fold | 1.668 fold |  |  |  | 
GSGDDSRVGQNQQT | 0.466 fold | 0.156 fold | 1.172 fold | 0.191 fold |  |  |  | 
GSGDLRISPQNQQT |  |  |  |  | 0.620 fold | 0.237 fold | 2.012 fold | 16.207 fold
GSGDLVVSTQNQQT |  |  |  |  | 0.411 fold | 0.273 fold | 3.874 fold | 1.177 fold
GSGDRYQTLQNQQT |  |  |  |  | 0.645 fold | 0.318 fold | 1.897 fold | 1.075 fold
GSGDSITGKQNQQT |  |  |  |  | 0.793 fold | 0.306 fold | 2.112 fold | 1.295 fold
GSGDTLHMLQNQQT |  |  |  |  | 0.393 fold | 0.482 fold | 3.317 fold | 1.174 fold
GSGEAARYEQNQQT |  |  |  |  | 0.107 fold | 0.125 fold | 1.020 fold | 0.000 fold
GSGEKVHSGQNQQT | 0.862 fold | 0.671 fold | 1.289 fold | 0.062 fold |  |  |  | 
GSGERLHLTQNQQT |  |  |  |  | 0.387 fold | 0.245 fold | 1.885 fold | 1.456 fold
GSGERSISVQNQQT | 0.598 fold | 0.173 fold | 1.264 fold | 1.619 fold |  |  |  | 
GSGEYSRSGQNQQT |  |  |  |  | 0.617 fold | 0.205 fold | 2.145 fold | 0.745 fold
GSGFGPQTGQNQQT |  |  |  |  | 1.280 fold | 0.849 fold | 2.964 fold | 2.861 fold
GSGFHTDSRQNQQT |  |  |  |  | 7.344 fold | 0.575 fold | 1.748 fold | 4.384 fold
GSGFLSDTRQNQQT |  |  |  |  | 0.473 fold | 0.575 fold | 1.566 fold | 45.953 fold
GSGFNQRSEQNQQT |  |  |  |  | 1.770 fold | 0.758 fold | 2.121 fold | 4.491 fold
GSGFPKSTEQNQQT | 0.610 fold | 0.194 fold | 1.376 fold | 2.058 fold |  |  |  | 
GSGFSHSMGKNQQT | 1.381 fold | 0.611 fold | 1.188 fold | 9.809 fold |  |  |  | 
GSGGGLQHNQNQQT | 1.137 fold | 0.778 fold | 1.163 fold | 4.098 fold |  |  |  | 
GSGGLDTRGQNQQT |  |  |  |  | 0.236 fold | 0.197 fold | 2.139 fold | 6.216 fold
